Measurements published in patent US11339151B2, “Aliphatic acid amide derivative” (Sumitomo Dainippon Pharma Co., Ltd., priority 2019, dated 2022).

Legend:
human D2 receptor = human D2 receptor (Homo sapiens (Human), UniProt P14416); assay: Test 1: binding activity for human D2 receptor ([3H]Spiperone, CHO cell membrane fraction); details: [3H]Spiperone, room temperature 60 minutes
Procedure: (§1) Ki value was evaluated from dissociation constant which was calculated from saturated binding tests, and a substrate concentration, and it was used as an index for binding affinity.

[1] = Test 3-1: metabolic stability test in human hepatic microsome; format: in vitro ADME; details: microsome 0.1 mg/mL, test compound 0.1 μmol/L, 37° C., 30 minutes
Procedure: Test 3-1: Metabolic Stability Test in Human Hepatic Microsome
The metabolic stability of the present compound in human hepatic microsome was evaluated as mentioned below. Human hepatic microsome was obtained from Xenontech. Human hepatic microsome, NADPH, and each test compound were mixed in 25 mmol/L phosphate buffer solution (pH 7.4) to reach the following concentrations as shown below, and the mixture was incubated at 37° C. for 30 minutes. • Human hepatic microsome: 0.1 mg/mL • NADPH: 3.2 mmol/L • Test compound: 0.1 μmol/L
The residual ratio of test compound in each sample after 30 minutes was measured by LC-MS, and the metabolic stability in human hepatic microsome was calculated from the following formula. Metabolic stability in human hepatic microsome (mL/min/mg protein)=−LN (residual ratio)/30/0.1

human 5-HT7 receptor [2] = molecular target: T1, human 5-HT7 receptor (Homo sapiens (Human), UniProt P34969); assay: Test 2: antagonist activity for human 5-HT7 receptor (aequorin luminescence, CHO-K1 cells); format: cell-based; details: Gα16
T1 sequence (P34969 whole entry): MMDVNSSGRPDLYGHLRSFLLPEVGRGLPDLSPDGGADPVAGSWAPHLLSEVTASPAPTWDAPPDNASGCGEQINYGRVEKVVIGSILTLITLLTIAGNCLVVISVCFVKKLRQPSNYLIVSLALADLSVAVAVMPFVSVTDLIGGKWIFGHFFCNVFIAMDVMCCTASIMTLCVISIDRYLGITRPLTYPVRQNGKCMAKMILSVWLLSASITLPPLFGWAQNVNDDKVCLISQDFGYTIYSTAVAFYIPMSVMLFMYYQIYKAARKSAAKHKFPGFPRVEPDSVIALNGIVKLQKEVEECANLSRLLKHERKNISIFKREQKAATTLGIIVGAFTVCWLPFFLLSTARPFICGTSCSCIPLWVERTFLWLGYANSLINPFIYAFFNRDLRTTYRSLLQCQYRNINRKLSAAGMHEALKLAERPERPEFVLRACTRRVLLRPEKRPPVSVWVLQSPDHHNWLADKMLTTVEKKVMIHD
Procedure: Test 2: Evaluation of Antagonist Activity for Human 5-HT2A Receptor and Human 5-HT7 Receptor
Aequorin, Gα 16 protein, and each receptor were transiently expressed in CHO-K1 cells (Chinese hamster ovary). The cells were cultivated in a CO2 incubator at 37° C. overnight, seeded into a 384-well plate, and stood at room temperature for 2 hours. Each compound dissolved in DMSO was added thereto, and changes in luminescence were measured by FDSS/μCELL drug discovery screening support system (Hamamatsu Photonics K.K.). As for antagonist activity, inhibitory activity of each compound was calculated by setting the luminescence level of wells to which 10 μmol/L endogenous ligand was added as 100%.

hERG channel = hERG channel (Homo sapiens (Human), UniProt Q12809); assay: Test 5: inhibitory activity for hERG channel (whole cell patch clamp, hERG-CHO cells); format: cell-based; details: hERG-CHO cells, auto patch clamp
Chain of hERG channel (Q12809 whole entry): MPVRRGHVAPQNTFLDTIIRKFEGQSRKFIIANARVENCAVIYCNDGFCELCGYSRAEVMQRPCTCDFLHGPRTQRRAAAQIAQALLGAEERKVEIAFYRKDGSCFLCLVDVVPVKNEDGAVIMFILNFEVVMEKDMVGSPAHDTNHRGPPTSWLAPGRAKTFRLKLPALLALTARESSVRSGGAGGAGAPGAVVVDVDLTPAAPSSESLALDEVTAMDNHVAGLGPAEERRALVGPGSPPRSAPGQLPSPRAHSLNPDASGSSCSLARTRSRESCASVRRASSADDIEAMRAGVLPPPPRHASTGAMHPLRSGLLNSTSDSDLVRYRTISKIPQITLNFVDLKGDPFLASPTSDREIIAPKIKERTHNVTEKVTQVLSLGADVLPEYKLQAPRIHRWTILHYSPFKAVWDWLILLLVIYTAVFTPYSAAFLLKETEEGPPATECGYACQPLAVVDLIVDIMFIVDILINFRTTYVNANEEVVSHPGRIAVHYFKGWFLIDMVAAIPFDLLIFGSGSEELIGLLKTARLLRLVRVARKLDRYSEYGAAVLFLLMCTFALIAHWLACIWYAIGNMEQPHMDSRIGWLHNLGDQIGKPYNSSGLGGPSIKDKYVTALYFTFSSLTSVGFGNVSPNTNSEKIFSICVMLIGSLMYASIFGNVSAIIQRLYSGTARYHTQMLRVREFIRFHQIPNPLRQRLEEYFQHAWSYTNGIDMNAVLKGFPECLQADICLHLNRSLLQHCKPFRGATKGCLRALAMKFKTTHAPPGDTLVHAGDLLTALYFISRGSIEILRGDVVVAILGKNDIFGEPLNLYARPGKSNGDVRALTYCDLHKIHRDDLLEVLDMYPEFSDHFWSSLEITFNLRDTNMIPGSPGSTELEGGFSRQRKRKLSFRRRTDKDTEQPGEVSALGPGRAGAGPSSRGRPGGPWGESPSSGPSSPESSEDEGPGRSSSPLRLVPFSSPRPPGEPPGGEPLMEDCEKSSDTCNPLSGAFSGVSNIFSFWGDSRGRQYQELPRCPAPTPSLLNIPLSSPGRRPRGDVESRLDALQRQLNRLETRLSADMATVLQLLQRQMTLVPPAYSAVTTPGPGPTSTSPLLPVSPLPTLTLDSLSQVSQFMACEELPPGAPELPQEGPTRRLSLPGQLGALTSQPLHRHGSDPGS
Procedure: Test 5: Evaluation of Inhibitory Activity for hERG Channel
Inhibitory activity of the present compound for hERG channel was measured by whole cell patch clamp method with an auto patch clamp system using CHO cells in which hERG channel involved in human rapidly activating delayed rectifier potassium current (IKr) was forcibly expressed.
hERG-CHO cells purchased from ChanTest Cop. were cultured in a CO2 incubator at 37° C., and dissociated from a flask with trypsin shortly before the measurement of hERG current to prepare a cell suspension.
The cell suspension, the extracellular fluid, the intracellular fluid, and the measurement plate were set in an auto patch clamp system, and hERG current was measured by whole cell patch clamp method. […] Each pulse interval was 15 seconds. The data analysis was carried out with Qube Assay Software (Sophion Sophion). The test was carried out by applying incrementally 4 concentrations of each test compound, and the average of the maximum peak tail currents which were obtained from the last 3 stimulations in each concentration was determined as the evaluated data.

human 5-HT7 receptor [3] = molecular target: T1, human 5-HT7 receptor; assay: Test 1: binding activity for human 5-HT7 receptor ([3H]SB-269970, CHO cell membrane fraction); details: [3H]SB-269970, room temperature 60 minutes
Procedure: as §1

Chain of human D2 receptor (P14416 whole entry): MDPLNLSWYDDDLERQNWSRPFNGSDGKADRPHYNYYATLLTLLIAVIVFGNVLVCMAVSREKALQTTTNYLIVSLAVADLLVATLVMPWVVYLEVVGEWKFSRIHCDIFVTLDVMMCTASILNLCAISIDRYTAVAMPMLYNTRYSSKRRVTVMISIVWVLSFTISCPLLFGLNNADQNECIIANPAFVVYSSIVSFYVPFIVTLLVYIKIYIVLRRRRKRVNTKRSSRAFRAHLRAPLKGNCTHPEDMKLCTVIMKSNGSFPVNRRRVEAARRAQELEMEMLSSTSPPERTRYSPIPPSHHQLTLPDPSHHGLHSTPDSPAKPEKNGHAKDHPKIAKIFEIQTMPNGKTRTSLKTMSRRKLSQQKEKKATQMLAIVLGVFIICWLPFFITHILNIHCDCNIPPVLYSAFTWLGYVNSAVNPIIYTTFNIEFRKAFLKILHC

Compound | Ki (human D2 receptor) [nM] | Metabolic stability in human hepatic microsome [1] [mL/min/mg protein] | IC50 (human 5-HT7 receptor [2]) [nM] | IC50 (hERG channel) [nM] | Ki (human 5-HT7 receptor [3]) [nM]
CCN(CCCN1CCC(c2noc3cc(F)ccc23)CC1)S(=O)(=O)CCO [Example 53] | < 100 | <0.05 | 44 | 7200 | 1.4
CCN(CCN1CCC(n2ncc3cc(F)ccc32)CC1)S(=O)(=O)CCO [Example 63] | 532 | <0.05 | 46 | 14500 | 6.9
CCN(CCCN1CCC(c2noc3cc(F)ccc23)CC1)C(=O)[C@H](C)O [Example 38] | 352 | <0.05 | 59 | > 10000 | 9.6
CCN(CCN1CCC(c2noc3cc(F)ccc23)CC1)C(=O)C1CNCC1O (stereo not drawn) [Example 66] | 212 | <0.05 | 70 | > 10000 | 5.4
CC(C)N(CCN1CCC(c2noc3cc(F)ccc23)CC1)C(=O)[C@@H](C)O [Example 42] | 74 | <0.05 | 9 | 6400 | 2.5
CCN(CCN1CCC(c2noc3ccc(F)cc23)CC1)C(=O)[C@H](C)O [Example 45] | > 300 | <0.05 | 49 | > 10000 | 22.6
CCN(CCN1CCC(c2noc3cc(F)ccc23)CC1)C(=O)C1CNCCC1O (stereo not drawn) [Example 67] | < 100 | <0.05 | 72 | > 10000 | 0.9
CCN(CCN1CCC(c2noc3cc(F)ccc23)CC1)C(=O)C(C)CO (stereo not drawn) [Example 37] | < 100 | <0.05 | 66 | > 10000 | 1.1
CCN(CCCN1CCC(c2noc3cc(F)ccc23)CC1)S(=O)(=O)C(C)CO (stereo not drawn) [Example 56] | < 100 | <0.05 | 6 | 2100 | 0.4
CCN(CCN1CCC(c2noc3cc(F)ccc23)CC1)C(=O)C1(O)CCCNC1 (stereo not drawn) [Example 69] | < 100 | <0.05 | 85 | > 10000 | 1.5
CCN(CCN1CCC(c2noc3cc(F)ccc23)CC1)C(=O)C1(O)CCCN(C(C)=O)C1 (stereo not drawn) [Example 72] | < 100 | 0.057 | 8 | 9900 | 10.6
CC(C)N(CCN1CCC(c2noc3cc(F)ccc23)CC1)C(=O)CCO [Example 35] | < 100 | <0.05 | 81 | 4300 | 3.8
CCN(CCN1CCC(n2ncc3cc(F)ccc32)CC1)S(=O)(=O)C(C)CO (stereo not drawn) [Example 64] | 348 | 0.097 | 101 | > 10000 | 2.4
CCN(CCN1CCC(c2noc3cc(F)ccc23)CC1)C(=O)C1CN(C)CCC1O (stereo not drawn) [Example 76, N-Ethyl-N-{2-[4-(6-fluoro-1,2-benzoisoxazol-3-yl)piperidin-1-yl]ethyl}-4-hydroxy-1-methylpiperidine-3-carboxamide] | 193 | <0.05 | 65 | > 10000 | 14.4
CCN(CCN1CCC(c2noc3cc(F)ccc23)CC1)C(=O)C(O)C(F)(F)F (stereo not drawn) [Example 34] | 247 | <0.05 | 78 | 7300 | 4.6
CCN(CCN1CCC(c2noc3ccc(C)cc23)CC1)S(=O)(=O)CCO [Example 59] | > 1000 | 0.079 | 62 | > 10000 | 13.6
CCN(CCN1CCC(c2noc3cc(F)ccc23)CC1)C(=O)C(O)C(C)C (stereo not drawn) [Example 8] | 294 | 0.108 | 8 | 4200 | 6.2
CCN(CCN1CCN(c2noc3ccccc23)CC1)C(=O)C(C)O (stereo not drawn) [Example 26] | > 10000 | <0.05 | 71 | > 10000 | 22.1
CCN(CCN1CCC(c2noc3cc(F)ccc23)CC1)C(=O)C1CN(C(C)=O)CCC1O (stereo not drawn) [Example 74] | 138 | <0.05 | 77 | 6700 | 6.8
CCN(CCN1CCC(c2c[nH]c3ccccc23)CC1)C(=O)[C@H](C)O [Example 23, (2S)—N-Ethyl-2-hydroxy-N-{2-[4-(1H-indol-3-yl)piperidin-1-yl]ethyl}propanamide] | > 1000 | <0.05 | 68 | > 10000 | 7.9
CCN(CCN1CCC(n2ncc3cc(F)ccc32)CC1)C(=O)CCO [Example 2, N-Ethyl-N-{2-[4-(5-fluoro-1H-indazol-1-yl)piperidin-1-yl]ethyl}-3-hydroxypropanamide] | > 1000 | <0.05 | 94 | 7400 | 9.3
CCN(CCN1CCN(c2noc3cc(F)ccc23)CC1)C(=O)C(C)O (stereo not drawn) [Example 27] | 2160 | <0.05 | 73 | > 10000 | 11.1
CCN(CCN1CCC(c2noc3cc(F)ccc23)CC1)C(=O)C1CN(C)CC1O (stereo not drawn) [Example 75, N-Ethyl-N-{2-[4-(6-fluoro-1,2-benzoisoxazol-3-yl)piperidin-1-yl]ethyl}-4-hydroxy-1-methylpyrrolidine-3-carboxamide] | 124 | <0.05 | 80 | 3800 | 3.6
CCN(CCN1CCC(c2noc3cc(F)ccc23)CC1)C(=O)C(C)(C)O [Example 6] | 278 | 0.053 | 66 | 1500 | 5.7
